This passage reports IC50 results from ChEMBL document CHEMBL4425090, “Antimalarial Oxoprotoberberine Alkaloids from the Leaves of Miliusa cuneata” (J Nat Prod, 2016).

For assay [1], the system named is Plasmodium falciparum. Kind of assay: Antiplasmodial activity against multidrug-resistant Plasmodium falciparum K1 infected in human RBC incubated for 18 to 20 hrs by microdilution radioisotope method. In kind it is functional, organism-based. (Broth dilution looks for growth in wells or tubes with falling amounts of substance.)
In assay [2] the test system is Plasmodium falciparum. Kind of assay: Antiplasmodial activity against chloroquine/antifolate-sensitive Plasmodium falciparum TM4 infected in human RBC incubated for 18 to 20 hrs by microdilution radioisotope method. In kind it is functional, organism-based.
A further assay relates to KB. Kind of assay: Cytotoxicity against human KB cells by sulforhodamine B assay. Format: functional, cell-based. Background: The SRB assay estimates cell density from bound dye.
A further assay relates to Vero. Kind of assay: Cytotoxicity against African green monkey Vero cells by sulforhodamine B assay. In kind it is cell-based. As to conditions: Chlorocebus sabaeus.

In general, IC50 refers to the concentration that gives 50% inhibition. Take `COc1cc(O)c2c(=O)c(OC)c(-c3ccc(O)c(OC)c3)oc2c1` [PACHYPODOL]: the IC50 in the assay on Plasmodium falciparum [1], with Plasmodium falciparum [2], with KB and in the assay on Vero was over 47.8 µM throughout.

As for `COc1cc2c(c(OC)c1O)CCN1C(=O)c3c(ccc(O)c3O)C[C@@H]21`, the IC50 is 26.1 µM in the assay with Plasmodium falciparum [1], 38.1 µM with Plasmodium falciparum [2], over 47.8 µM in the assay with KB and over 47.8 µM with Vero.

`COc1cccc2c1C(=O)c1c(O)c3c(c(O)c1C2=O)C[C@@](O)(C(=O)CO)C[C@@H]3O[C@H]1C[C@H](N)[C@H](O)[C@H](C)O1` [DOXORUBICIN] registered an IC50 with KB of 1 µM.

For the compound `O=C(/C=C/c1ccc(O)cc1)NCCc1ccc(O)cc1` [N-P-COUMAROYL TYRAMINE], the IC50 with Plasmodium falciparum [1], with Plasmodium falciparum [2], with KB and in the assay with Vero was over 47.8 µM each time.

For the compound `CC(C)=CCC/C(C)=C/[C@H]1OC(=O)C[C@]12C[C@H](O)C=CC2=O`, the IC50 in the assay on Plasmodium falciparum [1] amounted to 9.1 µM; with Plasmodium falciparum [2], 11.1 µM; in the assay with KB it was 10.2 µM; in the assay on Vero, 13.5 µM.

Consider `COc1cc2c(c(OC)c1OC)CCn1c-2cc2ccc(O)c(O)c2c1=O`, for which the IC50 in the assay with Plasmodium falciparum [1] is 10.8 µM; with Plasmodium falciparum [2], 25.6 µM; in the assay with KB, over 47.8 µM; in the assay on Vero it was over 47.8 µM.

`CCc1nc(N)nc(N)c1-c1ccc(Cl)cc1` [PYRIMETHAMINE] had a half-inhibitory concentration (IC50) with Plasmodium falciparum [1] of 31 µM.

For `COc1cc2c(c(OC)c1OC)CCN1C(=O)c3c(ccc(O)c3O)C[C@@H]21`, the IC50 was 29.1 µM in the assay on Plasmodium falciparum [1], over 47.8 µM with Plasmodium falciparum [2], over 47.8 µM with KB and over 47.8 µM in the assay with Vero.

On to `COc1cc2c(c(OC)c1O)CCn1c-2cc2ccc(O)c(O)c2c1=O`, for which the IC50 is 32.4 µM in the assay with Plasmodium falciparum [1], 41.4 µM with Plasmodium falciparum [2], over 47.8 µM in the assay on KB and over 47.8 µM in the assay on Vero.

Consider `Cc1c2ccncc2c(C)c2c1[nH]c1ccccc12` [ELLIPTECINE], for which the IC50 in the assay on Vero stood at 0.4 µM.

With `COc1cc(OC)c2c(=O)c(OC)c(-c3ccc(O)c(OC)c3)oc2c1`, the half-maximal inhibitory concentration (IC50) is 27.9 µM in the assay on Plasmodium falciparum [1], 31.5 µM in the assay with Plasmodium falciparum [2], over 47.8 µM in the assay with KB and over 47.8 µM in the assay with Vero.

Turning to `COc1cc(-c2oc3cc(OC)c(OC)c(O)c3c(=O)c2OC)ccc1O` [CHRYSOSPLENOL B], the IC50 with Plasmodium falciparum [1] was 12.4 µM; with Plasmodium falciparum [2] it was 39.5 µM; in the assay on KB, over 47.8 µM; in the assay with Vero it was over 47.8 µM.

`COc1cc(O)c2c(=O)c(OC)c(-c3ccc4c(c3)OCO4)oc2c1`: the IC50 in the assay with Plasmodium falciparum [1], in the assay with Plasmodium falciparum [2], in the assay on KB and in the assay on Vero was over 47.8 µM in each case.

`CC1(C)N=C(N)N=C(N)N1c1ccc(Cl)cc1` [CYCLOGUANIL]: the IC50 in the assay with Plasmodium falciparum [1] worked out at 3.2 µM.

For the compound `COc1cc([C@H]2OC[C@H]3[C@@H]2CO[C@@H]3c2cc(OC)c(O)c(OC)c2)cc(OC)c1O` [SYRINGARESINOL], the IC50 with Plasmodium falciparum [1], with Plasmodium falciparum [2], in the assay on KB and with Vero was over 47.8 µM each time.

Consider `COc1cc(/C=C/C(=O)NCCc2ccc(O)cc2)ccc1O` [N-TRANS-FERULOYL TYRAMINE], for which the IC50 is 54.9 µM with Plasmodium falciparum [1], over 47.8 µM with Plasmodium falciparum [2], over 47.8 µM in the assay with KB and over 47.8 µM in the assay with Vero.

Turning to `COc1cc2c(c(O)c1OC)CCn1c-2cc2ccc(O)c(O)c2c1=O`, the concentration for half-maximal inhibition (IC50) with Plasmodium falciparum [1] was 26.3 µM; in the assay with Plasmodium falciparum [2], 19.3 µM; in the assay on KB, over 47.8 µM; in the assay with Vero, over 47.8 µM.

On to `O=C(/C=C/c1ccc(O)c(O)c1)NCCc1ccc(O)cc1`, for which the IC50 with Plasmodium falciparum [1] was 23.8 µM; with Plasmodium falciparum [2], over 47.8 µM; in the assay on KB, over 47.8 µM; with Vero, over 47.8 µM.
